Reference: patent US10357468B2, “Medicaments for slowing Parkinson's disease” (BIAL—PORTELA & CA, S.A., priority 2014, dated 2019)

Assays:
[1] = test system: PD patients; test: 1-year open label extension of placebo-controlled double-blind trials of opicapone with levodopa and AADC inhibitor (Examples 1A, 1B); format: in vivo, human
[2] = Tolerability in the Example 2 study; conditions: OPC 25, 50 and 75 mg QD for 11 days

**Q.** Which “difference in OFF time” value ([1]; PD patients, at least 12 months post commencement of treatment with opicapone (with levodopa and AADCi), FIG. 1) does the source give for Cc1c(Cl)c(C)[n+]([O-])c(Cl)c1-c1noc(-c2cc(O)c(O)c([N+](=O)[O-])c2)n1 [opicapone, 5-[3-(2,5-dichloro-4,6-dimethyl-1-oxy-pyridin-3-yl)-[1,2,4]oxadiazol-5-yl]-3-nitrobenzene-1,2-diol] here?
**A.** approximately −2.0 hrs

**Q.** And the “difference in ON time without troublesome dyskinesia” value ([1]; PD patients, at least 12 months post commencement of treatment with opicapone (with levodopa and AADCi), FIG. 2)?
**A.** approximately +1.5 hr

**Q.** What about the “progression of PD” value ([1]; patients treated with opicapone from an earlier stage compared with groups naïve to opicapone, once a day at bedtime) of the same compound?
**A.** progressed less

**Q.** And the tolerability profile [2]?
**A.** favourable
